Results from patent US10131652B2, “Pyrimidinyloxy benzene derivatives as herbicides” (E. I. DU PONT DE NEMOURS AND COMPANY, priority 2014, dated 2018).

Key:
Format in all cases: in vivo
[1] = tested on: barnyardgrass (Echinochloa crus-galli); test: Test B pre-/postemergence plant response
Procedure, shortened: (§1)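 Visual injury rating, 0 (no effect) to 100 (complete control), vs untreated controls after ~10 d greenhouse. Pre: directed soil spray after planting in loam/sand. Post: plants 2–10 cm, 1–2 leaf stage. Compound in non-phytotoxic solvent plus surfactant.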

corn (Zea mays) = test: Test B pre-/postemergence plant response
Procedure, shortened: as §1

[2] = tested on: giant foxtail (Setaria faberii); test: Test B pre-/postemergence plant response
Procedure, shortened: as §1

[3] = tested on: large (Lg) crabgrass (Digitaria sanguinalis); test: Test B pre-/postemergence plant response
Procedure, shortened: as §1

[4] = tested on: morningglory (Ipomoea spp.); test: Test B pre-/postemergence plant response
Procedure, shortened: as §1

[5] = tested on: pigweed (Amaranthus retroflexus); test: Test B pre-/postemergence plant response
Procedure, shortened: as §1

[6] = tested on: velvetleaf (Abutilon theophrasti); test: Test B pre-/postemergence plant response
Procedure, shortened: as §1

[7] = tested on: wheat (Triticum aestivum); test: Test B pre-/postemergence plant response
Procedure, shortened: as §1

[8] = tested on: barnyardgrass (Echinochloa crus-galli); test: Test C flooded paddy test plant response; conditions: Flood, 250 g ai/ha; scale of 0 to 100 where 0 is no effect and 100 is complete control; 13 to 15 days
Procedure, shortened: (§2)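 Scale 0 (no effect) to 100 (complete control), assigned visually versus controls after 13–15 d greenhouse. Application: directly to paddy water, 3 cm flood depth kept constant, 2-leaf stage.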

[9] = tested on: ducksalad (Heteranthera limosa); test: Test C flooded paddy test plant response; conditions: Flood, 250 g ai/ha; scale of 0 to 100 where 0 is no effect and 100 is complete control; 13 to 15 days
Procedure, shortened: as §2

rice (Oryza sativa) = test: Test C flooded paddy test plant response; conditions: Flood, 250 g ai/ha; scale of 0 to 100 where 0 is no effect and 100 is complete control; 13 to 15 days
Procedure, shortened: as §2

[10] = tested on: small-flower umbrella sedge (Cyperus difformis); test: Test C flooded paddy test plant response; conditions: Flood, 250 g ai/ha; scale of 0 to 100 where 0 is no effect and 100 is complete control; 13 to 15 days
Procedure, shortened: as §2

[11] = 125 g ai/ha, postemergence, 0 to 100 scale, 0 no effect, 100 complete control
[12] = Postemergence, 500 g ai/ha, 0 to 100 scale (0 no effect, 100 complete control)
[13] = Preemergence, 125 g ai/ha, 0 to 100 scale where 0 is no effect and 100 is complete control
[14] = Preemergence, 500 g ai/ha, 0 to 100 scale (0 no effect, 100 complete control)
[15] = Preemergence, 500 g ai/ha, 0 to 100 scale where 0 is no effect and 100 is complete control

SMILES: Clc1cnc(Oc2ccccc2-c2cccnc2)nc1 [Compound 4]
- Plant response rating, Barnyardgrass [1, 11]: 0
- Plant response rating, Barnyardgrass [1, 12]: 10
- Plant response rating, Barnyardgrass [1, 13]: 0
- Plant response rating, Barnyardgrass [1, 14]: 0
- Plant response rating, Corn (corn (Zea mays); [13]): 0
- Plant response rating, Corn (corn (Zea mays); [14]): 0
- Plant response rating, Foxtail, Giant [2, 11]: 0
- Plant response rating, Foxtail, Giant [2, 12]: 30
- Plant response rating, Foxtail, Giant [2, 13]: 10
- Plant response rating, Foxtail, Giant [2, 14]: 50
- Plant response rating, Crabgrass, Large [3, 11]: 20
- Plant response rating, Crabgrass, Large [3, 12]: 50
- Plant response rating, Crabgrass, Large [3, 13]: 10
- Plant response rating, Crabgrass, Large [3, 14]: 80
- Plant response rating, Morningglory [4, 11]: 0
- Plant response rating, Morningglory [4, 12]: 30
- Plant response rating, Morningglory [4, 13]: 0
- Plant response rating, Morningglory [4, 14]: 0
- Plant response rating, Pigweed [5, 11]: 30
- Plant response rating, Pigweed [5, 12]: 100
- Plant response rating, Pigweed [5, 13]: 30
- Plant response rating, Pigweed [5, 14]: 70
- Plant response rating, Velvetleaf [6, 11]: 30
- Plant response rating, Velvetleaf [6, 12]: 60
- Plant response rating, Velvetleaf [6, 13]: 0
- Plant response rating, Velvetleaf [6, 14]: 30
- Plant response rating, Wheat [7, 11]: 0
- Plant response rating, Wheat [7, 12]: 0
- Plant response rating, Wheat [7, 13]: 0
- Plant response rating, Wheat [7, 14]: 0
- Barnyardgrass plant response rating [8]: 0
- Ducksalad plant response rating [9]: 0
- Rice plant response rating (rice (Oryza sativa)): 0
- Sedge, Umbrella plant response rating [10]: 0

SMILES: FC(F)(F)c1ccc(-c2ccccc2Oc2ncc(Cl)cn2)cc1 [Compound 43]
- Plant response rating, Barnyardgrass [1, 11]: 0
- Plant response rating, Barnyardgrass [1, 12]: 20
- Plant response rating, Barnyardgrass [1, 13]: 0
- Plant response rating, Barnyardgrass [1, 15]: 20
- Plant response rating, Corn (corn (Zea mays); [11]): 0
- Plant response rating, Corn (corn (Zea mays); [12]): 10
- Plant response rating, Corn (corn (Zea mays); [13]): 0
- Plant response rating, Corn (corn (Zea mays); [15]): 0
- Plant response rating, Foxtail, Giant [2, 11]: 0
- Plant response rating, Foxtail, Giant [2, 12]: 20
- Plant response rating, Foxtail, Giant [2, 13]: 0
- Plant response rating, Foxtail, Giant [2, 15]: 70
- Plant response rating, Crabgrass, Large [3, 11]: 0
- Plant response rating, Crabgrass, Large [3, 12]: 20
- Plant response rating, Crabgrass, Large [3, 13]: 0
- Plant response rating, Crabgrass, Large [3, 15]: 30
- Plant response rating, Morningglory [4, 11]: 0
- Plant response rating, Morningglory [4, 12]: 20
- Plant response rating, Morningglory [4, 13]: 0
- Plant response rating, Morningglory [4, 15]: 10
- Plant response rating, Pigweed [5, 11]: 30
- Plant response rating, Pigweed [5, 12]: 70
- Plant response rating, Pigweed [5, 13]: 0
- Plant response rating, Pigweed [5, 15]: 0
- Plant response rating, Velvetleaf [6, 11]: 20
- Plant response rating, Velvetleaf [6, 12]: 70
- Plant response rating, Velvetleaf [6, 13]: 0
- Plant response rating, Velvetleaf [6, 15]: 10
- Plant response rating, Wheat [7, 11]: 0
- Plant response rating, Wheat [7, 12]: 0
- Plant response rating, Wheat [7, 13]: 0
- Plant response rating, Wheat [7, 15]: 0
- Barnyardgrass plant response rating [8]: 0
- Ducksalad plant response rating [9]: 0
- Rice plant response rating (rice (Oryza sativa)): 0
- Sedge, Umbrella plant response rating [10]: 0

SMILES: FC(F)(F)c1ccnc(-c2ccccc2Oc2ncc(Br)cn2)c1 [Compound 26]
- Plant response rating, Barnyardgrass [1, 11]: 0
- Plant response rating, Barnyardgrass [1, 12]: 20
- Plant response rating, Barnyardgrass [1, 13]: 0
- Plant response rating, Barnyardgrass [1, 15]: 30
- Plant response rating, Corn (corn (Zea mays); [11]): 10
- Plant response rating, Corn (corn (Zea mays); [12]): 20
- Plant response rating, Corn (corn (Zea mays); [13]): 0
- Plant response rating, Corn (corn (Zea mays); [15]): 0
- Plant response rating, Foxtail, Giant [2, 11]: 0
- Plant response rating, Foxtail, Giant [2, 12]: 30
- Plant response rating, Foxtail, Giant [2, 13]: 0
- Plant response rating, Foxtail, Giant [2, 15]: 90
- Plant response rating, Crabgrass, Large [3, 11]: 10
- Plant response rating, Crabgrass, Large [3, 12]: 30
- Plant response rating, Crabgrass, Large [3, 13]: 10
- Plant response rating, Crabgrass, Large [3, 15]: 100
- Plant response rating, Morningglory [4, 11]: 10
- Plant response rating, Morningglory [4, 12]: 50
- Plant response rating, Morningglory [4, 13]: 0
- Plant response rating, Morningglory [4, 15]: 0
- Plant response rating, Pigweed [5, 11]: 30
- Plant response rating, Pigweed [5, 12]: 80
- Plant response rating, Pigweed [5, 13]: 0
- Plant response rating, Pigweed [5, 15]: 100
- Plant response rating, Velvetleaf [6, 11]: 10
- Plant response rating, Velvetleaf [6, 12]: 80
- Plant response rating, Velvetleaf [6, 13]: 10
- Plant response rating, Velvetleaf [6, 15]: 80
- Plant response rating, Wheat [7, 11]: 0
- Plant response rating, Wheat [7, 12]: 10
- Plant response rating, Wheat [7, 13]: 0
- Plant response rating, Wheat [7, 15]: 0
- Barnyardgrass plant response rating [8]: 0
- Ducksalad plant response rating [9]: 0
- Rice plant response rating (rice (Oryza sativa)): 0
- Sedge, Umbrella plant response rating [10]: 0

SMILES: FC(F)(F)c1cnc(Oc2ccccc2-c2cncs2)nc1 [Compound 13]
- Plant response rating, Barnyardgrass [1, 11]: 0
- Plant response rating, Barnyardgrass [1, 12]: 0
- Plant response rating, Barnyardgrass [1, 13]: 0
- Plant response rating, Barnyardgrass [1, 14]: 0
- Plant response rating, Corn (corn (Zea mays); [11]): 0
- Plant response rating, Corn (corn (Zea mays); [12]): 10
- Plant response rating, Corn (corn (Zea mays); [13]): 0
- Plant response rating, Corn (corn (Zea mays); [14]): 0
- Plant response rating, Foxtail, Giant [2, 11]: 0
- Plant response rating, Foxtail, Giant [2, 12]: 0
- Plant response rating, Foxtail, Giant [2, 13]: 0
- Plant response rating, Foxtail, Giant [2, 14]: 10
- Plant response rating, Crabgrass, Large [3, 11]: 0
- Plant response rating, Crabgrass, Large [3, 12]: 10
- Plant response rating, Crabgrass, Large [3, 13]: 0
- Plant response rating, Crabgrass, Large [3, 14]: 10
- Plant response rating, Morningglory [4, 11]: 0
- Plant response rating, Morningglory [4, 12]: 10
- Plant response rating, Morningglory [4, 13]: 0
- Plant response rating, Morningglory [4, 14]: 0
- Plant response rating, Pigweed [5, 11]: 0
- Plant response rating, Pigweed [5, 12]: 40
- Plant response rating, Pigweed [5, 13]: 0
- Plant response rating, Pigweed [5, 14]: 80
- Plant response rating, Velvetleaf [6, 11]: 30
- Plant response rating, Velvetleaf [6, 12]: 60
- Plant response rating, Velvetleaf [6, 13]: 0
- Plant response rating, Velvetleaf [6, 14]: 10
- Plant response rating, Wheat [7, 11]: 0
- Plant response rating, Wheat [7, 12]: 0
- Plant response rating, Wheat [7, 13]: 0
- Plant response rating, Wheat [7, 14]: 0
- Barnyardgrass plant response rating [8]: 0
- Ducksalad plant response rating [9]: 40
- Rice plant response rating (rice (Oryza sativa)): 0
- Sedge, Umbrella plant response rating [10]: 0
